The record followed here is patent publication US12172983B2, “EGFR inhibitors” (Blueprint Medicines Corporation, priority 2019, dated 2024).

The target of one assay is T1, EGFR (L858R T790M C797S) (Homo sapiens, UniProt P00533, C797S/L858R/T790M).
T1 construct: purchased SignalChem E10-122VG
Nature of the assay: Biochemical EGFR inhibition assay (Caliper mobility shift), EGFR LRTMCS mutant. Conditions: inhibitory activity against EGFR LRTMCS mutant; apparent IC50; read-out: Ext Enz LRTMCS. The procedure, abridged:
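Kinase reactions proceed at 25° C. to 10%–20% conversion of total peptide, are terminated with 35 mM EDTA, and the phosphopeptide is resolved from substrate by electrophoretic mobility shift. Apparent IC50 values come from plotting percent activity against log compound concentration.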

Assay [1] relates to phosphorylation of EGFR (Tyr1068) in NCI-H1975 cell line that harbors the EGFR L858R T790M mutations. Nature of the assay: NCI-H1975 pEGFR AlphaLISA assay. It counts as cell-based. Conditions: Homo sapiens, NCI-H1975, inhibition of phosphorylation of mutant EGFR in NCI-H1975 cells; 4-5 hours incubation; read-out: Ext pEGFR H1975. The procedure, abridged: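 NCI-H1975 cells (EGFR L858R/T790M) seeded overnight, then treated with compound for 4-5 h at 37 °C/5% CO2. After lysis, p-EGFR (Tyr1068) quantified by AlphaLISA SureFire Ultra with acceptor then donor beads; IC50 fitted from percent inhibition versus log concentration.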

T1 sequence (P00533 25-1210 T790M/C797S/L858R): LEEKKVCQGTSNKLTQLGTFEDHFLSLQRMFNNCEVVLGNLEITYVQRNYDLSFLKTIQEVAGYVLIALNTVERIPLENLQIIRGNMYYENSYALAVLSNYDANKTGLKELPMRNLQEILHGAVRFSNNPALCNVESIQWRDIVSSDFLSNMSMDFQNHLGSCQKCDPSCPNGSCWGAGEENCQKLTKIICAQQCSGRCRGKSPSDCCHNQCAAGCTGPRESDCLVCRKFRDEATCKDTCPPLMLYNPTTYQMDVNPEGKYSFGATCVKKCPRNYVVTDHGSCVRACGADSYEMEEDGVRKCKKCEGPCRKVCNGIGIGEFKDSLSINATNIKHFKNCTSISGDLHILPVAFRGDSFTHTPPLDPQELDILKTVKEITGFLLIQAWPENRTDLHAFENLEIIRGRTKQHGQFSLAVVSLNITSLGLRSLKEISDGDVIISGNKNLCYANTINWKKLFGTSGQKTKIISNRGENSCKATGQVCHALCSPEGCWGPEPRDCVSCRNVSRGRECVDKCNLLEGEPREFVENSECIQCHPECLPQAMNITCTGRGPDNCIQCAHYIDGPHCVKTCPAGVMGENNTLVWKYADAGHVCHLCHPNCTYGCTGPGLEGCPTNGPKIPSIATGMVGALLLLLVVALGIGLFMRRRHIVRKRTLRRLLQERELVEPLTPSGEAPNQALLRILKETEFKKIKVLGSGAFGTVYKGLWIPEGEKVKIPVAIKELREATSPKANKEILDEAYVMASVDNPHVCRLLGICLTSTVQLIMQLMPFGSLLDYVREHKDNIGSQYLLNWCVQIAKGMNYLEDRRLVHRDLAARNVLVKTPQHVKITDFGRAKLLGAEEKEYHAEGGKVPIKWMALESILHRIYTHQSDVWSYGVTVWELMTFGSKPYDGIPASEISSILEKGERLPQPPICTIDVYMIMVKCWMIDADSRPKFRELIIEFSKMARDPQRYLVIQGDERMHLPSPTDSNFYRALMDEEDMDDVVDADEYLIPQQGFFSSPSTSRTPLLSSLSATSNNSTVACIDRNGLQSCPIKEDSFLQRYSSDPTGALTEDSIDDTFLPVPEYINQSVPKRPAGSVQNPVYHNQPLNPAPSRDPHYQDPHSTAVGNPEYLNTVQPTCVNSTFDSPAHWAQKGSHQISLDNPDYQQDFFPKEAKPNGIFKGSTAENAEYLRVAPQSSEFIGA

On to `CC(C)c1ccc(N2C[C@H](CS(C)(=O)=O)[C@H]2C)c2cnc(Nc3ccnc(N4CC[C@@H](OC[C@H](C)O)[C@@H](F)C4)n3)cc12` (single isomer, unassigned) [Compound 247, (2S)-1-{[(3S,4R)-3-fluoro-1-[4-({8-[(2R,3S)-3-(methanesulfonylmethyl)-2-methylazetidin-1-yl]-5-(propan-2-yl)isoquinolin-3-yl}amino)pyrimidin-2-yl]piperidin-4-yl]oxy}propan-2-ol or (2R)-1-{[(3S,4R)-3-fluoro-1-[4-({8-[(2R,3S)-3-(methanesulfonylmethyl)-2-methylazetidin-1-yl]-5-(propan-2-yl)isoquinolin-3-yl}amino)pyrimidin-2-yl]piperidin-4-yl]oxy}propan-2-ol], for which the IC50 was ≤ 15 nM on EGFR (L858R T790M C797S) and ≤ 10 nM in assay [1].
For the compound `Cc1cc(C(C)C)c2cc(Nc3ccnc(N4CC[C@@H](O)[C@@](C)(F)C4)n3)ncc2c1N1CC(CS(C)(=O)=O)C1` (single isomer, unassigned) [Compound 116], the IC50 was ≤ 15 nM on EGFR (L858R T790M C797S) and 10.1 to 20 nM in assay [1].
For `CCS(=O)(=O)C[C@H]1CN(c2ccc(C(C)C)c3cc(Nc4ccnc(N5CC[C@](C)(O)[C@H](F)C5)n4)ncc23)[C@@H]1C` (single isomer, unassigned) [Compound 187], the values for the IC50 (on EGFR (L858R T790M C797S); in assay [1]) were 30.1 to 100 nM and 10.1 to 20 nM, respectively.
Consider `CC(C)c1ccc(N2C[C@H](CS(C)(=O)=O)[C@H]2C)c2cnc(Nc3ccnc(N4CCC(N)C(F)(F)C4)n3)cc12` (single isomer, unassigned) [Compound 152, N-(2-((R)-4-amino-3,3-difluoropiperidin-1-yl)pyrimidin-4-yl)-5-isopropyl-8-((2R,3S)-2-methyl-3-(methylsulfonylmethyl)azetidin-1-yl(isoquinolin-3-amine or N-(2-((S)-4-amino-3,3-difluoropiperidin-1-yl)pyrimidin-4-yl)-5-isopropyl-8-((2R,3S)-2-methyl-3-((methylsulfonyl)methyl)azetidin-1-yl)isoquinolin-3-amine], for which the IC50 was ≤ 15 nM on EGFR (L858R T790M C797S) and ≤ 10 nM in assay [1].
With `CC(C)c1ccc(N2C[C@H](CS(C)(=O)=O)[C@H]2C)c2cnc(Nc3ccnc(N4CCC(OCCN)CC4)n3)cc12` [Compound 168, N-{2-[4-(2-aminoethoxy)piperidin-1-yl]pyrimidin-4-yl}-8-[(2R,3S)-3-(methanesulfonylmethyl)-2-methylazetidin-1-yl]-5-(propan-2-yl)isoquinolin-3-amine], the IC50 is ≤ 15 nM on EGFR (L858R T790M C797S) and 10.1 to 20 nM in assay [1].
As for `COc1ccc(N2CC(CS(C)(=O)=O)C2)c2cnc(Nc3ccnc(N4C[C@@H](F)[C@@H](O)C(C)(C)C4)n3)cc12` (single isomer, unassigned) [Compound 79, (4S,5R)-5-fluoro-1-[4-({8-[3-(methanesulfonylmethyl)azetidin-1-yl]-5-methoxyisoquinolin-3-yl}amino)pyrimidin-2-yl]-3,3-dimethylpiperidin-4-ol or (4R,5S)-5-fluoro-1-[4-({8-[3-(methanesulfonylmethyl)azetidin-1-yl]-5-methoxyisoquinolin-3-yl}amino)pyrimidin-2-yl]-3,3-dimethylpiperidin-4-ol], the IC50 was ≤ 15 nM on EGFR (L858R T790M C797S) and 10.1 to 20 nM in assay [1].
For the compound `CCS(=O)(=O)C[C@H]1CN(c2ccc(C(C)C)c3cc(Nc4ccnc(N5CC[C@H](OCCO)[C@H](F)C5)n4)ncc23)[C@@H]1C` [Compound 243, 2-((3R,4S)-1-(4-(8-((2R,3S)-3-(ethylsulfonylmethyl)-2-methylazetidin-1-yl)-5-isopropylisoquinolin-3-ylamino)pyrimidin-2-yl)-3-fluoropiperidin-4-yloxy)ethanol], the IC50 on EGFR (L858R T790M C797S) is ≤ 15 nM; in assay [1], ≤ 10 nM.
The corresponding values for `CO[C@@H]1[C@H](F)CN(c2nccc(Nc3cc4c(C(C)C)ccc(N5C[C@H](CS(C)(=O)=O)[C@H]5C)c4cn3)n2)C[C@@H]1O` (racemic) [Compound 198, (3R,4R,5S)-5-fluoro-1-(4-((5-isopropyl-8-((2R,3S)-2-methyl-3-((methylsulfonyl)methyl)azetidin-1-yl)isoquinolin-3-yl)amino)pyrimidin-2-yl)-4-methoxypiperidin-3-ol and (3S,4S,5R)-5-fluoro-1-(4-((5-isopropyl-8-((2R,3S)-2-methyl-3-((methylsulfonyl)methyl)azetidin-1-yl)isoquinolin-3-yl)amino)pyrimidin-2-yl)-4-methoxypiperidin-3-ol] are 15.1 to 20 nM and ≤ 10 nM.
The corresponding values for `CCc1cnc(N2CC(CS(C)(=O)=O)C2)c2cnc(Nc3ccnc(N4CC[C@@H](O)[C@@](C)(F)C4)n3)cc12` (single isomer, unassigned) [Compound 31] are ≤ 15 nM and 10.1 to 20 nM.
For `CO[C@H]1CCN(c2nccc(Nc3cc4c(C(C)C)ccc(N5C[C@H](CS(C)(=O)=O)[C@H]5C)c4cn3)n2)C[C@H]1OCCO` (single isomer, unassigned) [Compound 295, 2-{[(3R,4S)-1-[4-({8-[(2R,3S)-3-(methanesulfonylmethyl)-2-methylazetidin-1-yl]-5-(propan-2-yl)isoquinolin-3-yl}amino)pyrimidin-2-yl]-4-methoxypiperidin-3-yl]oxy}ethan-1-ol or 2-{[(3S,4R)-1-[4-({8-[(2R,3S)-3-(methanesulfonylmethyl)-2-methylazetidin-1-yl]-5-(propan-2-yl)isoquinolin-3-yl}amino)pyrimidin-2-yl]-4-methoxypiperidin-3-yl]oxy}ethan-1-ol], the IC50 is ≤ 15 nM at EGFR (L858R T790M C797S) and ≤ 10 nM in assay [1].
For `CC(C)c1ccc(N2CC(CS(=O)(=O)C3CN(C)C3)C2)c2cnc(Nc3ccnc(N4CC[C@@H](O)[C@@](C)(F)C4)n3)cc12` (single isomer, unassigned) [Compound 238], in that order: ≤ 15 nM and ≤ 10 nM.
With `[2H]C([2H])([2H])O[C@H]1[C@@H](O)CN(c2nccc(Nc3cc4c(C(C)C)ccc(N5C[C@H](CS(C)(=O)=O)[C@H]5C)c4cn3)n2)CC1(F)F` (single isomer, unassigned) [Compound 313, (3S,4S)-5,5-difluoro-1-(4-((5-isopropyl-8-((2R,3S)-2-methyl-3-((methylsulfonyl)methyl)azetidin-1-yl)isoquinolin-3-yl)amino)pyrimidin-2-yl)-4-(^2H3)methoxypiperidin-3-ol or (3R,4R)-5,5-difluoro-1-(4-((5-isopropyl-8-((2R,3S)-2-methyl-3-((methylsulfonyl)methyl)azetidin-1-yl)isoquinolin-3-yl)amino)pyrimidin-2-yl)-4-(^2H3)methoxypiperidin-3-ol], the figures for the IC50 (at EGFR (L858R T790M C797S); in assay [1]) were 20.1 to 30 nM and ≤ 10 nM, respectively.
Take `CCS(=O)(=O)C[C@H]1CN(c2nnc(C(C)C)c3cc(Nc4ccnc(N5CC[C@H](OC)[C@H](F)C5)n4)ncc23)[C@@H]1C` [Compound 207, N-{4-[(2R,3S)-3-[(ethanesulfonyl)methyl]-2-methylazetidin-1-yl]-1-(propan-2-yl)pyrido[3,4-d]pyridazin-7-yl}-2-[(3R,4S)-3-fluoro-4-methoxypiperidin-1-yl]pyrimidin-4-amine]: the IC50 at EGFR (L858R T790M C797S) is ≤ 15 nM; in assay [1], 10.1 to 20 nM.
The corresponding values for `CO[C@H]1[C@@H](O)CN(c2nccc(Nc3cc4c(C(C)C)ncc(N5C[C@H](CS(C)(=O)=O)[C@H]5C)c4cn3)n2)CC1(F)F` (single isomer, unassigned) [Compound 234, (3S,4S)-5,5-difluoro-1-[4-({8-[(2R,3S)-3-(methanesulfonylmethyl)-2-methylazetidin-1-yl]-5-(propan-2-yl)-2,6-naphthyridin-3-yl}amino)pyrimidin-2-yl]-4-methoxypiperidin-3-ol or (3R,4R)-5,5-difluoro-1-[4-({8-[(2R,3S)-3-(methanesulfonylmethyl)-2-methylazetidin-1-yl]-5-(propan-2-yl)-2,6-naphthyridin-3-yl}amino)pyrimidin-2-yl]-4-methoxypiperidin-3-ol] are 20.1 to 30 nM and 20.1 to 30 nM.
For `CC(C)c1ccc(N2C[C@H](CS(C)(=O)=O)[C@H]2C)c2cnc(Nc3ccnc(N4CC[C@@](C)(O)[C@H](O)C4)n3)cc12` (single isomer, unassigned) [Compound 102, (3R,4R)-1-[4-({8-[(2R,3S)-3-(methanesulfonylmethyl)-2-methylazetidin-1-yl]-5-(propan-2-yl)isoquinolin-3-yl}amino)pyrimidin-2-yl]-4-methylpiperidine-3,4-diol or (3S,4S)-1-[4-({8-[(2R,3S)-3-(methanesulfonylmethyl)-2-methylazetidin-1-yl]-5-(propan-2-yl)isoquinolin-3-yl}amino)pyrimidin-2-yl]-4-methylpiperidine-3,4-diol], in that order: ≤ 15 nM and 20.1 to 30 nM.
On to `CCOc1ccc(N2CC(CS(=O)(=O)CC)C2)c2cnc(Nc3ccnc(N4CC[C@@H](O)[C@@](C)(F)C4)n3)cc12` (single isomer, unassigned) [Compound 145], for which the IC50 is 15.1 to 20 nM on EGFR (L858R T790M C797S) and 20.1 to 30 nM in assay [1].
For the compound `CO[C@H]1CCN(c2nccc(Nc3cc4c(C(C)C)ccc(N5CC(CS(C)(=O)=O)C5)c4cn3)n2)CC1(F)F` (single isomer, unassigned) [Compound 158], the IC50 on EGFR (L858R T790M C797S) lay within 15.1 to 20 nM; in assay [1] it was 10.1 to 20 nM.
As for `CCS(=O)(=O)CC1CN(c2ccc(C)c3cc(Nc4ccnc(N5CC[C@@H](O)[C@@](C)(F)C5)n4)ncc23)C1` (single isomer, unassigned) [Compound 25], the results for the IC50 (on EGFR (L858R T790M C797S); in assay [1]) were ≤ 15 nM and 30.1 to 50 nM, respectively.
